In patent publication US11377416B2, “Crystalline forms of hydroxynorketamine” (SMALL PHARMA LTD, priority 2017, dated 2022):

Experiments:
[1] = TG/DTA thermal analysis of crystal forms; type: physicochemical; settings: heated 10° C./min from 20° C. to 300° C. under nitrogen
Method: Approximately 5 mg of material was weighed into an open aluminium pan and loaded into a simultaneous thermogravimetric/differential thermal analyser (TG/DTA) and held at room temperature. The sample was then heated at a rate of 10° C./min from 20° C. to 300° C. during which time the change in sample weight was recorded along with any differential thermal events (DTA). Nitrogen was used as the purge gas, at a flow rate of 300 cm^3/min.

[2] = comparison value for known crystal forms, conditions not given; cited from earlier work
[3] = pKa analysis, potentiometric (pH-metric) titration; type: physicochemical; settings: pH-metric triple titration, methanol-water co-solvent, pH 2.0-12.0, Yasuda-Shedlovsky extrapolation
Method: The sample pKa was determined using the potentiometric (pH-metric) technique following attempts to determine pKa via UV spectroscopic techniques.
UV-metric: The sample was initially titrated in a fast-UV triple titration between pH 2.0-12.0 at concentrations of 31-19 μM, under aqueous conditions. No evidence of any sample ionisation within the investigated pH range was inferred from the spectroscopic data obtained, meaning that any ionisable groups were remote from chromophores. Therefore, the sample was analysed using the pH-metric method.
pH-metric: The sample was subsequently titrated using the potentiometric technique to determine the non-UV active pKas. A triple titration was carried out under methanol-water co-solvent conditions from pH 2.0-12.0 at concentrations of 0.9-0.6 mM (the methanol mixing ratio varied from 53.0 to 33.3% w/w). No precipitation of the sample from solution was observed so the pKa was determined from the potentiometric data collected, by Yasuda-Shedlovsky extrapolation of the individual results obtained. pKa of 2R,6R-hydroxynorketamine was calculated as 6.51+/−0.02.

Row | SMILES | temperature above which the material degrades (TG/DTA) [1] | also measured
1 | NC1(c2ccccc2Cl)CCCC(O)C1=O.O=C(O)CC(O)(CC(=O)O)C(=O)O (stereo not drawn) [2R,6R-Hydroxynorketamine Citrate] | above 157 °C | –
2 | NC1(c2ccccc2Cl)CCCC(O)C1=O.O=C(O)C=CC(=O)O.O=C(O)C=CC(=O)O (stereo not drawn) [2R,6R-Hydroxynorketamine Difumarate, 2R,6R-hydroxynorketamine difumarate] | above 159 °C | –
3 | NC1(c2ccccc2Cl)CCCC(O)C1=O.O=C(O)CC(O)C(=O)O [2R,6R-Hydroxynorketamine L-Malate, 2R,6R-hydroxynorketamine L-malate] | above 150 °C | –
4 | N[C@@]1(c2ccccc2Cl)CCC[C@@H](O)C1=O.O=C(O)C(O)C(O)C(=O)O [2R,6R-Hydroxynorketamine L-Tartrate, 2R,6R-hydroxynorketamine L-tartrate] | above 157 °C | –
5 | N[C@@]1(c2ccccc2Cl)CCC[C@@H](O)C1=O.O=C1CC[C@@H](C(=O)O)N1 [2R,6R-hydroxynorketamine L-pyroglutamate] | above 159 °C | –
6 | Cl.N[C@@]1(c2ccccc2Cl)CCC[C@@H](O)C1=O [2R,6R-hydroxynorketamine hydrochloride] | – | aqueous solubility of known crystal forms [2]: 25 mg/mL
7 | N[C@@]1(c2ccccc2Cl)CCC[C@@H](O)C1=O [2R,6R-hydroxynorketamine, 2R,6R-2-(2-Chlorophenyl)-2-(amino)-6-hydroxycyclohexanone] | – | pKa [3]: 6.51+/−0.02
